# Measurements reported in patent US20230293519A1, “INTEGRIN INHIBITORS AND USES THEREOF IN COMBINATION WITH OTHER AGENTS” (Pliant Therapeutics, Inc., priority 2021, published 2023).
# Columns and labels:
# [1] = system: fibrosis-related gene expression in explanted human lung tissue from patients with idiopathic pulmonary fibrosis; assay: nCounter Fibrosis Panel gene expression in precision cut lung slices from IPF explants; format: cell-based; settings: IPF PCLS, 7 days, vs DMSO
# Text: Fibrosis-related gene expression in explanted human lung tissue from patients with idiopathic pulmonary fibrosis was examined in order to determine what impact combining Compound 5 treatment with standard-of-care drugs nintedanib or pirfenidone, has on the expression of such genes.
# Samples used for this analysis are a subset (n = 4 of 7) of the lungs previously reported on in Decaris et al., Respir Res (2021) 22:265 (FIGS. 6 A and B). Briefly, tissue samples from patients with IPF were acquired at the time of lung transplantation. Precision cut lung slices were generated from the explants and cultured for 7 days in the presence of inhibitors (Compound 5, nintedanib, pirfenidone) at clinically relevant concentrations or vehicle (DMSO). Treated slices were lysed in mRNA-compatible buffer for gene expression analysis. For this study, the lysate from n = 6 slices per treatment per lung were pooled for analysis using the nCounter Fibrosis Panel (Nanostring) on the nCounter Max analyzer (Nanostring). This commercially available panel of 770 genes includes genes related to initial tissue damage response, chronic inflammation, proliferation of pro-fibrotic cells, and tissue modification leading to fibrotic disease. Technical quality control and normalization of raw Nanostring mRNA count data was performed using an R framework developed by Bhattacharya et al. (Bhattacharya A. et al., Brief Bioinform. 2021 May 20;22(3):bbaa163). The R packages limma (see URL www.bioconductor.org/packages/release/bioc/html/limma.html) and voom (Law, C.W. et al., Genome Biol. 2014 Feb 3;15(2):R29) were used to detect differentially expressed genes. Benjamini-Hochberg False Discovery Rate (FDR = 5%) was used to adjust p-values for multiple comparisons.
# [2] = system: Type I Collagen gene Col1a1 expression; assay: Precision cut lung slices of mice under acute bleomycin exposure; format: cell-based, mouse; settings: acute bleomycin injured lung slices
# Method: Mice (C57BL/6) were administered 3 U/kg of bleomycin (Teva Pharmaceuticals; North Wales, PA) on day 0 via oropharyngeal aspiration while under anesthesia. On day 14, precision cut lung slices were obtained. Following euthanization, 2% low gelling temp agarose was injected into the mouse lungs via the trachea. […] The lobes were then subjected to precision slicing to obtain samples for culture using a microtome (Compresstome VF-300-0Z, Precisionary; Greenville, NC). Individual slices were distributed in a multiwell culture plate and cultured for 3 days under control (DMSO) and test compound conditions.
# COL1A1 expression = assay: PCLS from human IPF lung tissue, 7 days: COL1A1 expression; format: cell-based; settings: Compound 5 200 nM, nintedanib 75 nM, pirfenidone 50 µM, 5-7 IPF lungs
# Method: PCLS from 5-7 idopathic pulmonary fibrosis (IPF) lung tissue samples were cultured for seven days with one of: DMSO; Compound 5 at 200 nM; nintedanib at 75 nM; pirfenidone at 50 µm; a combination of Compound 5 at 200 nM and nintedanib at 75 nM; a combination of Compound 5 at 200 nM and pirfenidone at 50 µm; or an Alk5 inhibitor at 1 µm. […] FIG. 6D is a bar graph showing relative expression of COL1A1 in precision cut lung slices (PCLS) from idopathic pulmonary fibrosis (IPF) lung tissue upon exposure to Comopund 5, clinical standard of care compounds nintedanib (Nin) and pirfenidone (Pirf), and an ALK5 inhibitor, all versus DMSO control.
# PCLS from a single IPF lung tissue sample were cultured for seven days with Compound 5 at concentrations of 200 pM, 2 nM, 60 nM, 200 nM, and 1 µM, along with 0.1% DMSO control and an Alk5 inhibitor at 1 µM. […] COL1A1 expression is also graphed for the PCLS in the presence of 0.1% DMSO control, and an Alk5 inhibitor at 1 µM.
# lung Col1a1 expression = assay: Precision cut lung slices of mice under chronic bleomycin exposure (vs pirfenidone and nintedanib); format: cell-based, mouse; settings: slices cultured 7 days; nintedanib and pirfenidone at 10x therapeutic concentrations
# Method: Mice (C57BL/6) were administered 3 U/kg of bleomycin (Teva Pharmaceuticals; North Wales, PA) on Day 0 and 1 U/kg of bleomycin on days 14, 28, 42 and 56 via oropharyngeal aspiration while under anesthesia. At day 70, 14 days following the final bleomycin insult, precision cut lung slices were obtained. Following euthanization, 2% low gelling temp agarose was injected into the mouse lungs via the trachea. […] The lobes were then subjected to precision slicing to obtain samples for culture using a microtome (Compresstome VF-300-0Z, Precisionary; Greenville, NC). Individual slices were distributed in a multiwell culture plate and cultured for 7 days under control (DMSO) and test compound conditions. The viability of the slices over the course of culturing was confirmed by WST-1 assay of mitochondrial activity.
# During the culture period, slices in the control group were treated with DMSO and slices in the test group were treated with a DMSO solution of one of: compound 5; nintedanib; pirfenidone; a combination of nintedanib and compound 5; a combination of pirfenidone and compound 5; or the small molecule ALK5 inhibitor. Compound 5 was […] effective to equal or exceed its respective IC50 values at αvβ6 and αvβ1. The small molecule ALK5 inhibitor was analyzed at 10x its reported IC50 value. Nintendanib and pirfenidone were analyzed at concentrations 10x their reported therapeutic concentrations.
smiles,measurement,setting,value
"COC(=O)c1ccc2c(c1)NC(=O)/C2=C(\Nc1ccc(N(C)C(=O)CN2CCN(C)CC2)cc1)c1ccccc1 [nintedanib, 3-Z-[1-(4-(N-((4-methyl-piperazin-1-yl)-methylcarbonyl)-N-methyl-amino)-anilino)-1-phenyl-methylene]-6-methoxycarbonyl-2-indolinone]",% Reduction of APOC2 expression,[1],16.88%
same,% Reduction of CDH2 expression,[1],-9.99%
same,% Reduction of COL1A1 expression,[1],27.60%
same,% Reduction of COL4A2 expression,[1],31.55%
same,% Reduction of FAP expression,[1],35.72%
same,% Reduction of FCGR3A/B expression,[1],33.44%
same,% Reduction of ITGB3 expression,[1],16.60%
same,% Reduction of LOX expression,[1],40.76%
same,% Reduction of LOXL2 expression,[1],15.99%
same,% Reduction of NID1 expression,[1],26.59%
same,% Reduction of PDGFRB expression,[1],42.09%
same,% Reduction of POSTN expression,[1],38.94%
same,% Reduction of SERPINE1 expression,[1],9.75%
same,% Reduction of SERPINH1 expression,[1],15.02%
same,% Reduction of SPP1 expression,[1],59.73%
same,% Reduction of TGFB1 expression,[1],21.04%
same,% Reduction of THBS2 expression,[1],25.58%
same,logFC of ACTA2 expression,[1],0.6841
same,logFC of ACVRL1 expression,[1],-1.329
same,logFC of ADH1B expression,[1],0.8975
same,logFC of ADH1C expression,[1],0.9337
same,logFC of ALDH7A1 expression,[1],0.7402
same,logFC of AMOTL2 expression,[1],0.5767
same,logFC of CCL19 expression,[1],0.789
same,logFC of CD34 expression,[1],-1.516
same,logFC of CDH5 expression,[1],-2.328
same,logFC of CETP expression,[1],-1.732
same,logFC of CFTR expression,[1],0.8907
same,logFC of COL6A5 expression,[1],0.6309
same,logFC of COL10A1 expression,[1],-1.169
same,logFC of COX4I2 expression,[1],-2.07
same,logFC of CXCL10 expression,[1],-1.71
same,logFC of CXCR4 expression,[1],-1.727
same,logFC of CYP2J2 expression,[1],1.025
same,logFC of DLL4 expression,[1],-2.786
same,logFC of ELN expression,[1],0.8689
same,logFC of FLT1 expression,[1],-3.369
same,logFC of FLT4 expression,[1],-1.476
same,logFC of FST expression,[1],1.092
same,logFC of GPX2 expression,[1],1.178
same,logFC of IGF1 expression,[1],0.632
same,logFC of KLF5 expression,[1],0.8124
same,logFC of LAMA3 expression,[1],0.6871
same,logFC of MASP1 expression,[1],0.8164
same,logFC of MET expression,[1],0.7131
same,logFC of MMP8 expression,[1],-1.053
same,logFC of MMP9 expression,[1],-1.1396
same,logFC of MMP11 expression,[1],-1.002
same,logFC of MMP12 expression,[1],-1.411
same,logFC of NOS3 expression,[1],-1.356
same,logFC of NOTCH4 expression,[1],-1.605
same,logFC of OCLN expression,[1],0.6026
same,logFC of PECAM1 expression,[1],-1.967
same,logFC of PYGM expression,[1],0.6237
same,logFC of TEK expression,[1],-1.206
same,logFC of TPSAB1/B2 expression,[1],-1.195
same,logFC of WWC1 expression,[1],0.7518
same,fold increase in concentration over compound 5 needed to reduce lung slice Col1a1 expression by 50%,[2],5.2 fold
same,reduction of COL1A1 expression,COL1A1 expression,did not significantly reduce
same,lung Col1a1 expression vs DMSO control,lung Col1a1 expression,slight increase
